Source: ChEMBL document CHEMBL1151354, “Isofraxidin, a cytotoxic coumarin from Micrandra elata (Euphorbiaceae)” (1980)
Converted amounts (≈) assume the structure as drawn.

How the values were obtained:
KB = test: Cytotoxicity against human KB cells; type: functional; details: read-out: ED50 (the source's name)
P388 = test: Cytotoxicity against mouse P388 cells; type: functional; details: read-out: ED50 (the source's name)

SMILES: COc1cc2ccc(=O)oc2c(OC)c1O
- EC50 (KB): > 100 µg/mL
- EC50 (P388): 1.7 µg/mL (≈ 7.65 µM)
